Measurements: ChEMBL document CHEMBL4414645, “Development of Robust 17(R),18(S)-Epoxyeicosatetraenoic Acid (17,18-EEQ) Analogues as Potential Clinical Antiarrhythmic Agents” (J Med Chem, 2019)
Active and inactive are the calls of the source. The rule behind the calls is not given here.

What was measured:
[1] = biological target: T1, Bifunctional epoxide hydrolase 2 (Homo sapiens) (UniProt P34913); test: Inhibition of N-terminal His-tagged recombinant human soluble epoxide hydrolase (2 to 555 residues) expressed in Sf21 insect cells at 10 uM using as 14,15-EET as substrate after 10 mins by reversed-phase HPLC assay relative to control
T1 sequence (whole entry): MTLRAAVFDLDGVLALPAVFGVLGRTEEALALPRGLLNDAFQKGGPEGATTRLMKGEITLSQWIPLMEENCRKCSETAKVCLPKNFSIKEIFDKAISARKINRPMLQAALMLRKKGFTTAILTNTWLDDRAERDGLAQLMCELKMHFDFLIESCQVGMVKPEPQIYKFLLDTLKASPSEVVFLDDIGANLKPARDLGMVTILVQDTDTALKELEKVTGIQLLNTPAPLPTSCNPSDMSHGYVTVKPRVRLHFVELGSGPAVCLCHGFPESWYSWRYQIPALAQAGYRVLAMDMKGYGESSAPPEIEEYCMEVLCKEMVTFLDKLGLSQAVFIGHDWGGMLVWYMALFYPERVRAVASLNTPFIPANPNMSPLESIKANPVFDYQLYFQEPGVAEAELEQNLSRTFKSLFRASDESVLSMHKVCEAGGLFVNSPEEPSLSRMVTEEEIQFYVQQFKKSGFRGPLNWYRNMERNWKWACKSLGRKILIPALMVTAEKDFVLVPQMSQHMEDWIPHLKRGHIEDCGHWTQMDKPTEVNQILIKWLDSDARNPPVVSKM

[2] = Negative chronotropic activity in Wistar rat neonatal cardiomyocytes assessed as change in basal beating rate after 7 mins by inverted microscopic method; type: functional
[3] = biological target: T1, Bifunctional epoxide hydrolase 2 (Homo sapiens); settings: Sf21, at 1 µM
Description: Inhibition of N-terminal His-tagged recombinant human soluble epoxide hydrolase (2 to 555 residues) expressed in Sf21 insect cells at 1 uM using as 14,15-EET as substrate after 10 mins by reversed-phase HPLC assay relative to control

[4] = Aqueous solubility of the compound in pH 7.4 potassium phosphate buffer at 2 mg after 1 to 24 hrs by RP-HPLC method; type: physicochemical
[5] = Stability in human plasma assessed as compound remaining at 10 uM measured up to 60 mins by LC-ESI-MS/MS analysis; type: ADME, cell-free; settings: read-out: Stability
[6] = Apparent permeability across apical to basolateral side in human Caco2 cells at 10 uM after 15 to 90 mins by LC-ESI-MS/MS analysis; type: ADME, cell-based; settings: Caco-2
[7] = Apparent permeability across basolateral to apical side in human Caco2 cells at 10 uM after 15 to 90 mins by LC-ESI-MS/MS analysis; type: ADME, cell-based; settings: Caco-2
Cytochrome P450 2J2 = biological target: T2, Cytochrome P450 2J2 (Homo sapiens, UniProt P51589); test: Inhibition of recombinant human CYP2J2 expressed in baculovirus infected insect cells co-expressing NADPH-CYP reductase and cytochrome b5 assessed as reduction in CYP2J2-mediated EPA epoxidation by measuring sum of EEQ and DiHETEs level at 1 to 50 uM using EPA as substrate preincubated for 5 mins followed by NADPH addition and measured after 15 mins by LCMS/MS analysis; type: ADME; settings: recombinant enzyme, 0.25 h
T2 sequence (P51589 whole entry): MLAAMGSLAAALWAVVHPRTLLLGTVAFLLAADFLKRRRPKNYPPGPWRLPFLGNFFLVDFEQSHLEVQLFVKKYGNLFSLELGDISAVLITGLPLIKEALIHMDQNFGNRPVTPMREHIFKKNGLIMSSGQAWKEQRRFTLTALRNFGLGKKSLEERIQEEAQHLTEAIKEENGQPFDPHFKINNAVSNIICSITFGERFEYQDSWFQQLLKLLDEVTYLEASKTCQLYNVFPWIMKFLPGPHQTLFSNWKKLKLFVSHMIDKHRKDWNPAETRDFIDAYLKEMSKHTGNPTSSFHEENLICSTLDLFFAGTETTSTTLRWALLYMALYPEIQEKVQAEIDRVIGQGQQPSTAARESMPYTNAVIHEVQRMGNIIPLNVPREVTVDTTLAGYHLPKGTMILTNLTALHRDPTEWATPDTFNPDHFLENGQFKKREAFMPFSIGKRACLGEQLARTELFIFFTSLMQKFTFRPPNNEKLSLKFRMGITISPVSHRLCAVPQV

[8] = Intrinsic clearance in human hepatocytes assessed per million cells at 1 uM measured up to 180 mins by LC-ESI-MS/MS analysis; type: ADME, cell-based, Hepatocyte; settings: read-out: CLH
[9] = Half life in human hepatocytes at 1 uM measured up to 180 mins by LC-ESI-MS/MS analysis; type: ADME, cell-based, Hepatocyte
Cytochrome P450 [10] = test: Drug metabolism in human liver microsomes assessed as CYP450-mediated formation of [+O] metabolites at 1 uM after 60 mins in presence of NADPH by LC-MS analysis; type: ADME; settings: 1 h
Cytochrome P450 [11] = test: Drug metabolism in human liver microsomes assessed as CYP450-mediated formation of [+O] metabolites at 1 uM after 60 mins in absence of NADPH by LC-MS analysis; type: ADME; settings: 1 h
[12] = biological target: T3, Epoxide hydrolase 1/Bifunctional epoxide hydrolase 2 (Homo sapiens, UniProt P07099+P34913); test: Drug metabolism in human liver microsomes assessed as microsomal/soluble epoxide hydrolase mediated formation of [+O + H2O] metabolites at 1 uM after 60 mins in presence of NADPH by LC-MS analysis; type: ADME; settings: 1 h
T3 sequence (P07099 whole entry): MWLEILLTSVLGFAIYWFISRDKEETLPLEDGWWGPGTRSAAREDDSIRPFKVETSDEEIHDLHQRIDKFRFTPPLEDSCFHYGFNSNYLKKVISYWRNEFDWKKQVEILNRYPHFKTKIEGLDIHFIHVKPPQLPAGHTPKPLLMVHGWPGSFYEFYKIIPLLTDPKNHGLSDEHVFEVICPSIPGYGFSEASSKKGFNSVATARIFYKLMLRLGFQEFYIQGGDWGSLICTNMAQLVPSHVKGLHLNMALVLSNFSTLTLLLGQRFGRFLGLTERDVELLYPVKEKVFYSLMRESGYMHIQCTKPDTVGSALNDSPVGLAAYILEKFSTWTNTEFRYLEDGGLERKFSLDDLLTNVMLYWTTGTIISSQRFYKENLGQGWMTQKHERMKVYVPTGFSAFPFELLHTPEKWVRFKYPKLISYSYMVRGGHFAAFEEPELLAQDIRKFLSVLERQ
T3 sequence (P34913 whole entry): T1 sequence (whole entry)

[13] = biological target: T3, Epoxide hydrolase 1/Bifunctional epoxide hydrolase 2; test: Drug metabolism in human liver microsomes assessed as microsomal/soluble epoxide hydrolase mediated formation of [+O + H2O] metabolites at 1 uM after 60 mins in absence of NADPH by LC-MS analysis; type: ADME; settings: 1 h
[14] = Negative chronotropic activity in Wistar rat neonatal cardiomyocytes assessed as decrease in basal beating rate after 7 mins by inverted microscopic method; type: functional, cell-based
[15] = Negative chronotropic activity in Wistar rat neonatal cardiomyocytes assessed as changes to basal beating rate after 7 mins by inverted microscopic method; type: functional
Rattus norvegicus [16] = test: Antiarrhythmic activity in Wistar rat model of coronary artery ligation-induced myocardial infarction assessed as reduction in total time on development of ventricular tachycardia at 100 ug, iv administered via bolus pretreated for 10 mins followed by coronary artery ligation measured for 45 mins; type: functional, organism-based
Rattus norvegicus [17] = test: Antiarrhythmic activity in Wistar rat model of coronary artery ligation-induced myocardial infarction assessed as reduction in disease severity score at 100 ug, iv administered via bolus pretreated for 10 mins followed by left anterior descending artery occlusion measured for 45 mins; type: functional, organism-based

Compound | inhibition [1] | Activity [2] | inhibition [3] | also measured
CNC(=O)C(=O)NCCCc1ccccc1CCCCCCP(=O)([O-])[O-].[Na+].[Na+] | -2.2% | -24.5 bpm | -1% | –
CNC(=O)C(=O)NCCCC/C=C\CCCCCCCCCC1=NO[S+]([O-])N1 (configuration not stated) | 10% | -24.3 bpm | -0.2% | –
CNC(=O)C(=O)NCCCCc1ccccc1CCCCCCCCCP(=O)([O-])[O-].[Na+].[Na+] | 1.8% | -21.8 bpm | 1.3% | –
CNC(=O)C(=O)NCCCC/C=C\CCCCCCCCCP(=O)(OC)OCOC(=O)C(C)(C)C (configuration not stated) | 18.6% | -16.2 bpm | 5.4% | –
CCNC(=O)NCCCC/C=C\CCCCCCCCCC(=O)NCC(=O)[O-].[Na+] | 19.2% | -21.1 bpm | 0.9% | solubility [4]: Soluble
CC(C)[N+](C)(CCOC(=O)C1c2ccccc2Oc2ccccc21)C(C)C [PROPANTHELINE BROMIDE] | – | – | – | remaining at 1 h, 10 µM [5]: 2.6%
C[C@]12CC[C@H]3[C@@H](CCC4=CC(=O)CC[C@@]43C)[C@@H]1CC[C@@H]2O [TESTOSTERONE] | – | – | – | Papp A→B at 10 µM [6]: 32.5 ×10⁻⁶ cm/s; Papp B→A at 10 µM [7]: 58.9 ×10⁻⁶ cm/s
CNC(=O)C(=O)NCCCC/C=C\CCCCCCCCCS(=O)(=O)[O-].[Na+] | 0% | -20.7 bpm | 5.2% | –
CCCCc1oc2ccc(NS(C)(=O)=O)cc2c1C(=O)c1ccc(OCCCN(CCCC)CCCC)cc1 [DRONEDARONE] | – | – | – | inhibition (INH) (Cytochrome P450 2J2): Active
CC[C@H]1OC(=O)[C@H](C)[C@@H](O[C@H]2C[C@@](C)(OC)[C@@H](O)[C@H](C)O2)[C@H](C)[C@@H](O[C@@H]2O[C@H](C)C[C@H](N(C)C)[C@H]2O)[C@](C)(O)C[C@@H](C)C(=O)[C@H](C)[C@@H](O)[C@]1(C)O [ERYTHROMYCIN] | – | – | – | Papp A→B at 10 µM [6]: 0.35 ×10⁻⁶ cm/s; Papp B→A at 10 µM [7]: 10.4 ×10⁻⁶ cm/s
CNC(=O)C(=O)NCCCC/C=C\CCCCCCCCCP(=O)([O-])[O-].[Na+].[Na+] | 37.7% | -21.3 bpm | 6.8% | –
CNC(=O)C(=O)NCCCC/C=C\CCCCCCCCCc1noc(=O)[nH]1 | -9.2% | -11 bpm | -5% | –
CCOc1ccc2ccc(=O)oc2c1 [ETHOXYCOUMARIN] | – | – | – | hepatocyte CLint at 1 µM [8]: 43.2 µL/min/1e6 cells; half-life at 1 µM [9]: 20.5 min
CNC(=O)C(=O)NCCCC/C=C\CCCCCCCCCP(=O)(OC)OC | 6.4% | -18 bpm | 5% | –
CNC(=O)C(=O)NCCCC/C=C\CCCCCCCCCC(=O)NS(=O)(=O)c1ccccc1 | 1.1% | -23.1 bpm | -3.2% | –
CNC(=O)C(=O)NCCCC/C=C\CCCCCCCCCP(=O)(OCOC(=O)C(C)(C)C)OCOC(=O)C(C)(C)C | 38.4% | -23.5 bpm | 5.1% | –
CNC(=O)C(=O)NCCCC/C=C\CCCCCCCCCSc1ccccc1O | 1.5% | -7.5 bpm | 0.4% | –
CCCCc1oc2ccccc2c1C(=O)c1cc(I)c(OCCN(CC)CC)c(I)c1 [AMIODARONE] | – | – | – | inhibition (INH) (Cytochrome P450 2J2): Active
CCCCCCCC/C=C\CCCCCCCC(=O)O [OLEIC ACID] | – | – | – | Drug metabolism (Cytochrome P450 [10]): Metabolite_Detected; Drug metabolism (Cytochrome P450 [11]): Metabolite_Notdetected; Drug metabolism [12]: Metabolite_Detected; Drug metabolism [13]: Metabolite_Notdetected
CCNC(=O)NCCCC/C=C\CCCCCCCOCC(=O)O | 10.4% | -38 bpm | 3.6% | –
CC(C)(C)c1ccc(C(O)CCCN2CCC(C(O)(c3ccccc3)c3ccccc3)CC2)cc1 (configuration not stated) [TERFENADINE] | – | – | – | inhibition (INH) (Cytochrome P450 2J2): Active
CNC(=O)C(=O)NCCCC/C=C\CCCCCCCCCC(=O)N[C@@H](C)C(=O)[O-].[Na+] | 18.7% | -1.1 bpm | 1.9% | –
CCNC(=O)NCCCC/C=C\CCCCCCCCCC(=O)OCCOCCOCCO | 76.6% | -19.8 bpm | 26.5% | solubility [4]: Soluble
CC[C@@H]1O[C@@H]1C/C=C\C/C=C\C/C=C\C/C=C\CCCC(=O)O | – | – | – | EC50 [14]: 12 nM; Emax [15]: 28.9 bpm
CNC(=O)C(=O)NCCCC/C=C\CCCCCCCCCOc1cccc2sc(NC(C)=O)nc12 | 61.8% | -21.1 bpm | 17% | –
CCNC(=O)NCCCC/C=C\CCCCCCCCCC(=O)O | 23.4% | – | 4.7% | –
CNC(=O)C(=O)NCCCC/C=C\CCCCCCCCCC(=O)N(C)CC(=O)[O-].[Na+] | 17.8% | -15.6 bpm | -0.6% | –
CNC(=O)C(=O)NCCCC/C=C\CCCCCCCOCC(=O)OCCOCCOCCO | 1.9% | -25.2 bpm | 1.3% | solubility [4]: Soluble; Activity (Rattus norvegicus [16]): Active; Activity (Rattus norvegicus [17]): Active
